Assay results published in US11767303B2, “Compounds and methods for inhibiting viral replication and methods of treating and preventing flaviviral infections” (priority 2020, dated 2023).

Biological target: T1, DENV2 NS2B-NS3 protease (Dengue virus type 2, UniProt P29990)
T1 construct: made in house
Experiment: Protease inhibition assay (FRET peptide substrate)
Type: biochemical, Dengue virus serotype 2
Settings: refolded NS3; read-out: IC50-pro (DN2)
Description: Protease Inhibition Assay. The protease inhibition assay was performed using the refolded DENV2 NS3 fusion protein (50 nM) and a fluorescence resonance energy transfer (FRET) peptide substrate (100 μM) (Abz-RRRRSAG-nTyr (NeoBiolab)), as described previously. […] 13:e1006411 (2017); and Lang et al., “Analysis of Protein-Protein Interactions by Split Luciferase Complementation Assay,” Curr. Protoc. Toxicol. 82:e (2019), all of which are hereby incorporated by reference in their entirety. Substrate cleavage was monitored at excitation/emission wavelengths of 360 nm/420 nm (Abz substrate) by a BioTek Flx800. The rate of increase in relative fluorescence unit (RFU) over time was calculated in the linear range and normalized as a percent of the DMSO control. The IC50/CC50/EC50 was determined by fitting the dose-responsive curve with a non-linear regression function using the GraphPad Prism 8 (San Diego, Calif.). All experiments were performed in triplicates.
Next, the inhibition efficacy of these positive derivatives were evaluated against the viral NS2B-NS3 protease function as previously described. […] Previously, two versions of the NS3 protease were generated, the NS3 protease domain refolded from inclusion bodies and a soluble version of the NS3 protease domain fused to maltose-binding protein (MBP). […]

T1 sequence (P29990 1476-1654): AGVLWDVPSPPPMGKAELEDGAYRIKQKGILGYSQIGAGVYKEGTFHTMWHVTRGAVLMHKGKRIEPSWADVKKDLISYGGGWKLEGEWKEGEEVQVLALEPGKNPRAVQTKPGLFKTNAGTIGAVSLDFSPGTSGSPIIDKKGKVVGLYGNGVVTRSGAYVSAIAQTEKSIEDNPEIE

SMILES | IC50 [µM]
CC[C@H](N)COc1ccc(Cl)cc1C(=O)Nc1ccc([N+](=O)[O-])cc1Cl [HJC0390] | 46.5
O=C(Nc1ccc([N+](=O)[O-])cc1Cl)c1cc(Cl)ccc1OCCN1CCOCC1 [HJC0114] | 33.6
Nc1ccc(NC(=O)c2cc(Cl)ccc2O)c(Cl)c1 [HJC0129] | 11.3
O=C(Nc1ccc2c(c1)S(=O)(=O)C=C2)c1cc(Cl)ccc1O [HJC0149] | 20.3

Test system: not listed separately
Experiment: Pharmacokinetics in B6 mice after oral gavage
Settings: B6 mice, single oral dose 40 mg/kg, plasma
Description: Pharmacokinetics. […] Fan et al., “Contributions of Hepatic and Intestinal Metabolism to the Disposition of Niclosamide, a Repurposed Drug with Poor Bioavailability,” Drug Metab. Dispos. 47:756-763 (2019), which is hereby incorporated by reference in its entirety. […] Student's t-test was used. P values<0.05 were considered statistically significant.

SMILES | T1/2 ± S.D. [h]
O=C(Nc1ccc([N+](=O)[O-])cc1Cl)c1cc(Cl)ccc1O [Niclosamide, reference compound] | 4.6 ± 1.0

Same assay, conditions: female, B6, mouse, in vivo, po, 40 mg/kg

SMILES | AUC0→∞ ± S.D. | Cmax [nM] | Tmax ± S.D. [h]
O=C(Nc1ccc([N+](=O)[O-])cc1Cl)c1cc(Cl)ccc1O [Niclosamide, reference compound] | 3.5 ± 0.8 | 600 | 0.7 ± 0.4

Test system: DENV2
Experiment: Viral titer (plaque) reduction assay, DENV2 in A549 cells
Type: cell-based, Dengue virus serotype 2
Settings: Dengue virus, DENV2, A549, 48 h, read-out: EC50-DN2 (A549)
Description: Viral Titer Reduction Assay. A viral titer reduction assay was used to determine the compounds' effect on DENV2 and ZIKV strains, as described previously. […] Human A549 lung carcinoma cells and human primary neural progenitor cells were used, as described previously. […] 13:e1006411 (2017), which are hereby incorporated by reference in their entirety. All experiments were performed in triplicates.
A viral plaque reduction assay was performed next to evaluate the antiviral efficacy of these derivatives. Human lung carcinoma A549 cells were infected with DENV2 in the presence of a concentration series of derivatives or a dimethyl sulfoxide (DMSO) control, and viral titers were measured at 48 hrs post-infection, as described previously.

SMILES | EC50 [µM]
O=C(Nc1ccc([N+](=O)[O-])cc1Cl)c1cc(Cl)ccc1O [Niclosamide, reference compound] | 0.55

Same assay, conditions: Dengue virus, DENV2; A549 cells, 48 hrs post-infection; read-out: EC50-DN2 (A549)

SMILES | EC50 [µM]
CC(=O)Nc1ccc(NC(=O)c2cc(Cl)ccc2O)c(Cl)c1 [HJC0140] | > 30
CC[C@H](N)COc1ccc(Cl)cc1C(=O)Nc1ccc([N+](=O)[O-])cc1Cl [HJC0390] | 0.43
O=C(Nc1ccc([N+](=O)[O-])cc1Cl)c1cc(Cl)ccc1OCCN1CCOCC1 [HJC0114] | > 30
Nc1ccc(NC(=O)c2cc(Cl)ccc2O)c(Cl)c1 [HJC0129] | > 30
O=C(Nc1ccc2c(c1)S(=O)(=O)C=C2)c1cc(Cl)ccc1O [HJC0149] | 0.9

Same assay, conditions: Dengue virus, DENV2; Table 4, preliminary SAR, A549 cells; read-out: EC50-DN2

SMILES | EC50 [µM]
CC(=O)Oc1ccccc1C(=O)Nc1ncc([N+](=O)[O-])s1 [NTZ, nitazoxanide, reference compound] | 0.3
CC(=O)Nc1ccc(NC(=O)c2cc(Cl)ccc2O)c(Cl)c1 [HJC0140] | > 30
Nc1ccc(NC(=O)c2cc(Cl)ccc2O)c(Cl)c1 [HJC0129] | > 30
O=C(Nc1ccc2c(c1)S(=O)(=O)C=C2)c1cc(Cl)ccc1O [HJC0149] | 0.9

Same assay, conditions: Table 4, preliminary SAR, A549 cells; read-out: EC50-DN2

SMILES | EC50 [µM]
O=C(Nc1ccc(C(F)(F)F)cc1Cl)c1cc(Cl)ccc1O [JMX0308] | 0.09

Test system: not listed separately
Experiment: WST-8 cell proliferation cytotoxicity assay
Type: cell-based, human
Settings: human
Description: (§1) Cytotoxicity Assay. […] All experiments were performed in triplicates.
(§2) To address this concern, next the compound cytotoxicity CC50 was measured using a WST-8 cell proliferation assay, as described previously.

SMILES | CC50 [µM]
CC(=O)Oc1ccccc1C(=O)Nc1ncc([N+](=O)[O-])s1 [NTZ, nitazoxanide, reference compound] | 77

Same assay, conditions: human; A549 cells; read-out: CC50 (A549)

SMILES | CC50 [µM]
CC[C@H](N)COc1ccc(Cl)cc1C(=O)Nc1ccc([N+](=O)[O-])cc1Cl [HJC0390] | 30.1
O=C(Nc1ccc([N+](=O)[O-])cc1Cl)c1cc(Cl)ccc1OCCN1CCOCC1 [HJC0114] | > 200
Nc1ccc(NC(=O)c2cc(Cl)ccc2O)c(Cl)c1 [HJC0129] | 176
O=C(Nc1ccc2c(c1)S(=O)(=O)C=C2)c1cc(Cl)ccc1O [HJC0149] | 241

Test system: A549 cells
Experiment: WST-8 cell proliferation cytotoxicity assay
Type: cell-based, human
Settings: Table 4, preliminary SAR, A549 cells; read-out: CC50
Description: as §1, §2

SMILES | CC50 [µM]
O=C(Nc1ccc([N+](=O)[O-])cc1Cl)c1cc(Cl)ccc1O [Niclosamide, reference compound] | 4.8

Test system: ZIKV
Experiment: Viral titer reduction assay, ZIKV in A549 cells
Type: cell-based, Zika virus
Settings: Table 4, preliminary SAR, A549 cells; read-out: EC50-ZK
Description: Viral Titer Reduction Assay. A viral titer reduction assay was used to determine the compounds' effect on DENV2 and ZIKV strains, as described previously. […] Human A549 lung carcinoma cells and human primary neural progenitor cells were used, as described previously. […] All experiments were performed in triplicates.

SMILES | EC50 [µM]
O=C(Nc1ccc(C(F)(F)F)cc1Cl)c1cc(Cl)ccc1O [JMX0308] | 0.12

Same assay, conditions: Zika virus, A549, read-out: EC50-ZK

SMILES | EC50 [µM]
CC(=O)Nc1ccc(NC(=O)c2cc(Cl)ccc2O)c(Cl)c1 [HJC0140] | > 30
Nc1ccc(NC(=O)c2cc(Cl)ccc2O)c(Cl)c1 [HJC0129] | > 30
O=C(Nc1ccc2c(c1)S(=O)(=O)C=C2)c1cc(Cl)ccc1O [HJC0149] | 1.1
O=C(Nc1ccc([N+](=O)[O-])cc1Cl)c1cc(Cl)ccc1O [Niclosamide, reference compound] | 0.48

Same assay, conditions: Zika virus, A549, read-out: EC50-ZK (A549)

SMILES | EC50 [µM]
CC(=O)Nc1ccc(NC(=O)c2cc(Cl)ccc2O)c(Cl)c1 [HJC0140] | > 30
CC[C@H](N)COc1ccc(Cl)cc1C(=O)Nc1ccc([N+](=O)[O-])cc1Cl [HJC0390] | < 0.1
O=C(Nc1ccc([N+](=O)[O-])cc1Cl)c1cc(Cl)ccc1OCCN1CCOCC1 [HJC0114] | > 30
Nc1ccc(NC(=O)c2cc(Cl)ccc2O)c(Cl)c1 [HJC0129] | > 30
O=C(Nc1ccc2c(c1)S(=O)(=O)C=C2)c1cc(Cl)ccc1O [HJC0149] | 1.1
O=C(Nc1ccc([N+](=O)[O-])cc1Cl)c1cc(Cl)ccc1O [Niclosamide, reference compound] | 0.48

Same assay, conditions: Zika virus; Table 4, preliminary SAR, A549 cells; read-out: EC50-ZK

SMILES | EC50 [µM]
CC(=O)Oc1ccccc1C(=O)Nc1ncc([N+](=O)[O-])s1 [NTZ, nitazoxanide, reference compound] | 1.5

Test system: not listed separately
Experiment: LogP
Settings: not given

SMILES | logP
CC(=O)Nc1ccc(NC(=O)c2cc(Cl)ccc2O)c(Cl)c1 [HJC0140] | 2.47
O=C(Nc1ccc(C(F)(F)F)cc1Cl)c1cc(Cl)ccc1O [JMX0308] | 4.49
Nc1ccc(NC(=O)c2cc(Cl)ccc2O)c(Cl)c1 [HJC0129] | 2.76
O=C(Nc1ccc2c(c1)S(=O)(=O)C=C2)c1cc(Cl)ccc1O [HJC0149] | 2.41

Test system: not listed separately
Experiment: physchem
Settings: not given

SMILES | logP
CC(=O)Oc1ccccc1C(=O)Nc1ncc([N+](=O)[O-])s1 [NTZ, nitazoxanide, reference compound] | 2.14
O=C(Nc1ccc([N+](=O)[O-])cc1Cl)c1cc(Cl)ccc1O [Niclosamide, reference compound] | 3.38

Biological target: T2, DENV2 NS2B-NS3 interaction (Dengue virus type 2, UniProt P29990)
T2 construct: GST (N); made in house
T2 sequence (P29990 1476-1654): as above
Experiment: Split luciferase complementation (SLC) NS2B-NS3 interaction assay
Type: binding, Dengue virus serotype 2
Settings: concentration reducing 50% of SLC signal; read-out: IC50-SLC-(DN2)

SMILES | IC50 [µM]
CC[C@H](N)COc1ccc(Cl)cc1C(=O)Nc1ccc([N+](=O)[O-])cc1Cl [HJC0390] | 6
O=C(Nc1ccc([N+](=O)[O-])cc1Cl)c1cc(Cl)ccc1OCCN1CCOCC1 [HJC0114] | 18.4
Nc1ccc(NC(=O)c2cc(Cl)ccc2O)c(Cl)c1 [HJC0129] | 9.6
O=C(Nc1ccc2c(c1)S(=O)(=O)C=C2)c1cc(Cl)ccc1O [HJC0149] | 18.6
O=C(Nc1ccc([N+](=O)[O-])cc1Cl)c1cc(Cl)ccc1O [Niclosamide, reference compound] | 2

Test system: not listed separately
Experiment: in vitro
Settings: not told, Perme. (cell permeability)

SMILES | Papp [×10⁻⁶ cm/s]
O=C(Nc1ccc([N+](=O)[O-])cc1Cl)c1cc(Cl)ccc1O [Niclosamide, reference compound] | 0.25

Test system: DENV2 replicon
Experiment: DENV2 replicon assay in BHK-21 cells (Renilla luciferase)
Type: cell-based, Dengue virus serotype 2
Settings: Dengue virus, BHK-21 replicon cells, 48 hours, read-out: EC50-DN2 (DENV2 replicon)
Description: DENV2 Replicon Assay. […] The cells were incubated at 37° C. in a humidified incubator with 5% CO2 for hrs in a 100 μl medium containing Minimal Essential Medium (MEM) supplemented with 10% fetal bovine serum (FBS), 100 I.U./ml penicillin, 100 g/ml streptomycin, and 300 μg/ml G418. Upon 24 hrs incubation, culture medium was discarded. Fresh culture medium of 100 μl with a concentration series of compounds or DMSO control was added to the cells in triplicates. The culture was further incubated for 48 hours. The cells were then washed twice with 100 μl phosphate-buffered saline (PBS), followed by addition of 25 μl of a lysis buffer containing 1×PBS and 1% Triton X-100. The mixture was incubated at room temperature with gentle shaking (50 rpm) for 30 minutes. Assay buffer (125 μl) containing 1×PBS, 0.05% (3-((3-cholamidopropyl) dimethylammonio)-1-propanesulfonate) (CHAPS), and 0.1% BSA was then added to each well. In the meantime, a fresh 4× working substrate coelenterazine was prepared by diluting 1 μl of stock coelenterazine (2.4 mM) dissolved in ethanol into 10 ml assay buffer (10,000-fold dilution). […] The luminescence was recorded immediately using the Veritas luminometer. The luminescence data was normalized to DMSO control. The EC50 was determined by nonlinear regression fitting of normalized experimental data in GraphPad Prism 8.0 (San Diego, Calif.). […]

SMILES | EC50 [µM]
O=C(Nc1ccc([N+](=O)[O-])cc1Cl)c1cc(Cl)ccc1O [Niclosamide, reference compound] | 2

Test system: not given
Experiment: not given
Settings: not told

SMILES | Perme. (cell permeability) [×10⁻⁶ cm/s]
O=C(Nc1ccc(C(F)(F)F)cc1Cl)c1cc(Cl)ccc1O [JMX0308] | 0.27
